Laboratory results reported in patent publication US20090036389A1, “Polymeric Micelle Formulations of Hydrophobic Compounds and Methods” (priority 2002, published 2009).

How the values were obtained:
[1] = Drug loading of PEG-b-PCL (5000:4000) micelles, cosolvent evaporation versus dialysis; format: physicochemical

Protocol for bovine erythrocytes: EDTA-anticoagulated bovine blood was diluted in PBS, pH=7.2. The erythrocytes were separated by centrifugation for 10 min at 3000 rpm. The supernatant was removed and discarded. The packed cell volume (PCV) was washed three more times with PBS. The PCV was diluted appropriately in PBS to obtain suspensions of 8×10^7 and 1.48×10^8 cells/mL. Cell counts were preformed using an Improved Neubauer Brightline hemacytometer (depth=0.1 mm) from Hausser Scientific (Horsham, Pa.). The AmB/polymer formulations and polymer blanks were brought to room temperature and reconstituted with 1.0 mL of PBS just prior to use. 1.85 mL of the 8×10^7 cells/mL suspension was incubated at 37° C. in a shaking water bath (75 rpm) with 150 μL of AmB/polymer formulation, polymer blank containing no AmB, or PBS buffer (control) for 24 h. […] The supernatant was collected, and hemoglobin content was determined by absorbance at 542 nm. […] Percent hemolysis is reported by 100(Abss-Absb)/(Abs1-Absb) where Abss is the absorbance of the sample, Absb is the average absorbance of the buffer, and Abss is the average absorbance of the lysed samples. […]
An 8 mg/mL AmB in DMSO stock solution was prepared. […] The samples were collected over time, and percent hemolysis was determined as described above.

| SMILES | % Yield of Drug ([1]; Cosolvent Evaporation) | % Yield of Drug ([1]; Dialysis) | Final Drug/Polymer Mole Ratio ([1]; Cosolvent Evaporation) | Final Drug/Polymer Mole Ratio ([1]; Dialysis) | time-dependent hemolytic profile / onset of hemolysis (bovine erythrocytes) |
| --- | --- | --- | --- | --- | --- |
| CC(C)OC(=O)C(C)(C)Oc1ccc(C(=O)c2ccc(Cl)cc2)cc1 [Fenofibrate, 2-[4-(4-chlorobenzoyl)phenoxy]-2-methylpropanoic acid 1-methylethyl ester] | 88% | 31% | – | – | – |
| C[C@@H]1[C@H](O)[C@@H](C)/C=C/C=C/C=C/C=C/C=C/C=C/C=C/[C@H](O[C@@H]2O[C@H](C)[C@@H](O)[C@H](N)[C@@H]2O)C[C@@H]2O[C@](O)(C[C@@H](O)C[C@@H](O)[C@H](O)CC[C@@H](O)C[C@@H](O)CC(=O)O[C@H]1C)C[C@H](O)[C@H]2C(=O)O [Free AmB, amphotericin B] | 48% | 25% | 0.11 | 0.055 | immediate hemolysis |
